Measured values reported in patent US20040024024A1, “Aromatic sulfone hydroxamates and their use as protease inhibitors” (priority 2001, published 2004).

What was measured:
Human recombinant MMP-2 = molecular target: T1, Human recombinant MMP-2 (Homo sapiens, UniProt P08253); assay: In vitro MMP inhibition, IC50 determination (fluorogenic substrate I); format: biochemical
T1 construct: made in house; host or cells: MMP-2-transfected p2AHT2 cells
T1 sequence (P08253 110-660): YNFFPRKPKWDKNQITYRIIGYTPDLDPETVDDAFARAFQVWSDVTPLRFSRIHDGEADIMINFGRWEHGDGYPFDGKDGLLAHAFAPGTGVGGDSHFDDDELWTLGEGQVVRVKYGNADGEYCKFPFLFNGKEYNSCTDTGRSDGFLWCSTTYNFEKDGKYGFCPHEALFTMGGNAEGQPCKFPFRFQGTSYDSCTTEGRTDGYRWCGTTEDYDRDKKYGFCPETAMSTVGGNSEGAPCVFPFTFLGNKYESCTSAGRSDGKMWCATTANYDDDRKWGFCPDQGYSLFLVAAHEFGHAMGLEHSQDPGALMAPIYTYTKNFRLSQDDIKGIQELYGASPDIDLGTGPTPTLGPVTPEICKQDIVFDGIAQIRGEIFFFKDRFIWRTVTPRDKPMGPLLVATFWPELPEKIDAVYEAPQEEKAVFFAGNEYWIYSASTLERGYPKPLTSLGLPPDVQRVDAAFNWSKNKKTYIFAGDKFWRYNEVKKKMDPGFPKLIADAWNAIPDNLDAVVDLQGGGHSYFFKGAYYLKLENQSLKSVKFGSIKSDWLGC
Description: (§1) Several hydroxamates and salts thereof were analyzed in in vitro assays to determine their ability to inhibit the MMP cleavage of peptide substrates. Inhibition (Ki) and IC50 constants were calculated from the assayed hydroxamate-MMP interactions.
(§2) Human recombinant MMP-1, MMP-2, MMP-9, MMP-13, and MMP-14 were used in this assay. All enzymes were prepared in Assignee's laboratories following usual laboratory procedures. Protocols for the preparation and use of these enzymes are available in the scientific literature. See, e.g., Enzyme Nomenclature (Academic Press, San Diego, Calif., 1992) (and the citations therein). See also, Frije et al., J. Biol. Chem., 26(24), 16766-73 (1994).
The MMP-2 proenzyme was purified by gelatin Sepharose chromatography from MMP-2-transfected p2AHT2 cells provided by Dr. Gregory Goldberg of Washington University (St. Louis, Mo.).
(§3) All MMPs were activated using 4-aminophenylmercuric acetate (“APMA”, Sigma Chemical, St. Louis, Mo.) or trypsin. MMP-9 also was activated using human recombinant MMP-3 (purified in Assignee's laboratory following standard cloning and purification techniques).
(§4) Two fluorogenic, methoxycoumarin-containing polypeptide substrates were used in the MMP inhibition assays:
(§5) MCA-ProLeuGlyLeuDpaAlaArgNH2 (I)
(§6) Here, “Dpa” is 3-(2,4-dinitrophenyl)-L-2,3-diaminopropionyl group, and “MCA” is 7-methoxycoumarin-4-yl acetyl. Substrate (I) was purchased from Baychem (Redwood City, Calif.), and substrate II was prepared Assignee's laboratory. Substrate I was used in the IC50 determination assays, while substrate II was used in the Ki determination assays. In the absence of MMP inhibitory activity, either substrate is cleaved at the Gly-Leu peptide bond. This cleavage separates the highly fluorogenic peptide from the 2,4-dinitrophenyl quencher, thus resulting in increase of fluorescent intensity.
(§7) The stock solutions of the assayed hydroxamates (or salts thereof) were prepared in 1% dimethyl sulfoxide (DMSO). These stock solutions were diluted in Buffer A (100 mM Tris-HCl, 100 mM NaCl, 10 mM CaCl2, 0.05% polyoxyethylene 23 lauryl ether, pH 7.5) to obtain solutions with different hydroxamate concentrations, i.e., assay solutions with different concentrations of the assayed MMP inhibitory compound. The experiment controls contained the same amount of Buffer A/DMSO as the assayed sample, but contained no hydroxamate (or salt thereof).
(§8) The assays from which the IC50 determinations were made were performed as follows. The MMPs were activated with either trypsin or APMA (4-aminophenylmercuric acetate, Sigma Chemical, St. Louis, Mo.). The assayed hydroxamate samples were, incubated in Microfluorrm White Plates (Dynatech, Chantilly, VA) and analyzed on a Perkin Elmer L550 plate reader (Norwalk, Conn.). The excitation wavelength was 328 nm, and the emission wavelength—415 nm. All samples (assayed hydroxamates and controls) were incubated in separate plates at room temperature in the presence of 4 μM of MMP substrate (I). As stated in the previous paragraph, samples containing varying concentrations of the same assayed hydroxamate were prepared. Inhibition was measured as a reduction in fluorescent intensity as a function of MMP inhibitor concentration.

Human recombinant MMP-13 = molecular target: T2, Human recombinant MMP-13 (Homo sapiens, UniProt P45452); assay: as above; format: biochemical
T2 construct: made in house; host or cells: baculovirus / insect cells
Description: as §1, §2
The expressed proenzyme was first purified over a heparin agarose column, and then over a chelating zinc chloride column. The proenzyme was then activated by APMA for use in the assay. Further details on baculovirus expression systems may be found in, for example, Luckow et al., J. Virol., 67, 4566-79 (1993). See also, O'Reilly et al, Baculovirus Expression Vectors: A Laboratory Manual (W. H. Freeman and Co., New York, N.Y., 1992). See also, King et al., The Baculovirus Expression System: A Laboratory Guide (Chapman & Hall, London, England, 1992).
as §3, §4, §5, §6, §7, §8

[1] = value outside parentheses (Ki in parenthesis)

Structure (SMILES)	IC50 (Human recombinant MMP-2; [1]) [nM]	IC50 (Human recombinant MMP-13; [1]) [nM]	further results
CCOc1ccc(-c2nnc(CCCOc3ccc(S(=O)(=O)C4(C(=O)NO)CCOCC4)cc3)o2)cc1OCC [Example 303]	50	9.9	
CCCCc1ccc(N2CCN(CCCOc3ccc(S(=O)(=O)C4(C(=O)NO)CCOCC4)cc3)C2=O)cc1 [Example 192]			IC50 (Human recombinant MMP-2; value outside parenthesis): 1260 nM; IC50 (Human recombinant MMP-13; value outside parenthesis): 15.4 nM
O=C1CN(c2ccc(OC(F)(F)F)cc2)C(=O)N1CCCOc1ccc(S(=O)(=O)C2(C(=O)NO)CCN(C3CC3)CC2)cc1 [Example 133]			IC50 (Human recombinant MMP-2; value outside parenthesis): 84.4 nM; IC50 (Human recombinant MMP-13; value outside parenthesis): 4.3 nM
COc1cccc(CC(=O)NCCOc2ccc(S(=O)(=O)C3(C(=O)NO)CCOCC3)cc2)c1 [Example 602]			IC50 (Human recombinant MMP-2; value outside parentheses): 13.7 nM; IC50 (Human recombinant MMP-13; value outside parentheses): 3.6 nM
O=C(NCCCOc1ccc(S(=O)(=O)C2(C(=O)NO)CCOCC2)cc1)C1CCCCC1 [Example 399]	650	8	
COCCN1CCC(C(=O)NO)(S(=O)(=O)c2ccc(OCCCn3ncc(-c4ccc(OC)cc4)c3C(F)(F)F)cc2)CC1 [Example 202]			IC50 (Human recombinant MMP-2; value outside parenthesis): 1600 nM; IC50 (Human recombinant MMP-13; value outside parenthesis): 41.9 nM
CC(C)c1ccc(N2CCN(CCCOc3ccc(S(=O)(=O)C4(C(=O)NO)CCOCC4)cc3)C2=O)cc1 [Example 186]			IC50 (Human recombinant MMP-2; value outside parenthesis): 610 nM; IC50 (Human recombinant MMP-13; value outside parenthesis): 13.5 nM
CC(=O)N1CC[C@@H](Oc2ccc(S(=O)(=O)C3(C(=O)NO)CCOCC3)cc2)C1 [Example 427]	251	114	
O=C(NCCCOc1ccc(S(=O)(=O)C2(C(=O)NO)CCOCC2)cc1)c1ccccc1O [Example 372]	210	6	
COc1ccc(C(=O)N2CCCC(COc3ccc(S(=O)(=O)C4(C(=O)NO)CCOCC4)cc3)C2)cc1 (stereo not drawn) [Example 421]	649	256	
COc1cc(CCCOc2ccc(S(=O)(=O)C3(C(=O)NO)CCOCC3)cc2)cc(OC)c1 [Example 585]			IC50 (Human recombinant MMP-2; value outside parentheses): 85.4 nM; IC50 (Human recombinant MMP-13; value outside parentheses): 4 nM
COc1ccc(C(=O)NC(C)(C)CCOc2ccc(S(=O)(=O)C3(C(=O)NO)CCNCC3)cc2)cc1 [Example 225]			IC50 (Human recombinant MMP-2; value outside parenthesis): 2330 nM; IC50 (Human recombinant MMP-13; value outside parenthesis): 17.8 nM
O=C(c1cccc(C(F)(F)F)c1)N1CC[C@@H](Oc2ccc(S(=O)(=O)C3(C(=O)NO)CCOCC3)cc2)C1 [Example 424]	485	192	
O=C(NO)C1(S(=O)(=O)c2ccc(OCCCOc3ccccc3C(F)(F)F)cc2)CCOCC1 [Example 444]	8.9	7.6	
CC(C)(C)c1cccc(NC(=O)CCCOc2ccc(S(=O)(=O)C3(C(=O)NO)CCOCC3)cc2)c1 [Example 572]			IC50 (Human recombinant MMP-2; value outside parentheses): 37.3 nM; IC50 (Human recombinant MMP-13; value outside parentheses): 4.7 nM
COc1ccc(C(=O)N2CC[C@@H](Oc3ccc(S(=O)(=O)C4(C(=O)NO)CCOCC4)cc3)C2)cc1 [Example 422]	7200	1480	
COc1ccc(C(=CCCCOc2ccc(S(=O)(=O)C3(C(=O)NO)CCOCC3)cc2)c2ccc(OC)cc2)cc1 [Example 349]	505	39	
O=C(NCCCOc1ccc(S(=O)(=O)C2(C(=O)NO)CCOCC2)cc1)c1cccc2ccccc12 [Example 375]	425	17	
O=C(NO)C1(S(=O)(=O)c2ccc(OCCCc3cc(C(F)(F)F)cc(C(F)(F)F)c3)cc2)CCOCC1 [Example 573]			IC50 (Human recombinant MMP-2; value outside parentheses): 1710 nM; IC50 (Human recombinant MMP-13; value outside parentheses): 75.1 nM
O=C1c2cc3ccccc3cc2C(=O)N1CCCOc1ccc(S(=O)(=O)C2(C(=O)NO)CCOCC2)cc1 [Example 343]	7700	2.4	
N=C(NCCOc1ccc(S(=O)(=O)C2(C(=O)NO)CCOCC2)cc1)c1ccccc1 [Example 600]			IC50 (Human recombinant MMP-2; value outside parentheses): 206 nM; IC50 (Human recombinant MMP-13; value outside parentheses): 214 nM

Structure (SMILES)	IC50 (Human recombinant MMP-2; [1]) [nM]	IC50 (Human recombinant MMP-13; [1]) [nM]	further results
O=C(NO)C1(S(=O)(=O)c2ccc(OCCCc3cccc(-c4cc(F)cc(F)c4)c3)cc2)CCOCC1 [Example 159]			IC50 (Human recombinant MMP-2; value outside parenthesis): 1370 nM; IC50 (Human recombinant MMP-13; value outside parenthesis): 24.4 nM
CC(C)(C)c1ccc(C(=O)NCCCOc2ccc(S(=O)(=O)C3(C(=O)NO)CCOCC3)cc2)cc1 [Example 374]	800	8	
COCC(C)(C)COc1ccc(S(=O)(=O)C2(C(=O)NO)CCOCC2)cc1 [Example 455]	900	690	
COc1ccc(C(=N)NCCCOc2ccc(S(=O)(=O)C3(C(=O)NO)CCOCC3)cc2)cc1 [Example 588]			IC50 (Human recombinant MMP-2; value outside parentheses): 94.9 nM; IC50 (Human recombinant MMP-13; value outside parentheses): 15 nM
O=C(NCCCOc1ccc(S(=O)(=O)C2(C(=O)NO)CCOCC2)cc1)c1ccc2ccccc2n1 [Example 389]	47	0.5	
O=C(NCCCOc1ccc(S(=O)(=O)C2(C(=O)NO)CCOCC2)cc1)c1ccncc1 [Example 383]	351	7.5	
O=C(NO)C1(S(=O)(=O)c2ccc(OCCCSc3nc4c(Cl)cc(Cl)cc4o3)cc2)CCOCC1 [Example 407]	285	25	
Cn1cnc(CC(=O)NCCOc2ccc(S(=O)(=O)C3(C(=O)NO)CCOCC3)cc2)c1 [Example 566]			IC50 (Human recombinant MMP-2; value outside parentheses): 65.7 nM; IC50 (Human recombinant MMP-13; value outside parentheses): 18.8 nM
O=C(CCCOc1ccc(S(=O)(=O)C2(C(=O)NO)CCOCC2)cc1)Nc1cc2ccccc2cc1O [Example 312]	9.1	0.2	
COc1ccc(/C(C#N)=C/CCOc2ccc(S(=O)(=O)C3(C(=O)NO)CCOCC3)cc2)cc1 [Example 236]			IC50 (Human recombinant MMP-2; value outside parenthesis): 7.6 nM; IC50 (Human recombinant MMP-13; value outside parenthesis): 3.4 nM
O=C(NO)C1(S(=O)(=O)c2ccc(OCCCS(=O)(=O)N3CCC(Oc4ccc(C(F)(F)F)cc4)CC3)cc2)CCOCC1 [Example 279]			IC50 (Human recombinant MMP-2; value outside parenthesis): 15.9 nM; IC50 (Human recombinant MMP-13; value outside parenthesis): 9.4 nM
O=C(COc1ccc(S(=O)(=O)C2(C(=O)NO)CCOCC2)cc1)Nc1cccc(-c2ccccc2)c1 [Example 642]			IC50 (Human recombinant MMP-2; value outside parentheses): 2890 nM; IC50 (Human recombinant MMP-13; value outside parentheses): 36.9 nM
O=C(NCCSc1ccc(S(=O)(=O)C2(C(=O)NO)CCOCC2)cc1)c1cc2ccccc2s1 [Example 597]			IC50 (Human recombinant MMP-2; value outside parentheses): 471 nM; IC50 (Human recombinant MMP-13; value outside parentheses): 12.1 nM
COCCN1CCC(C(=O)NO)(S(=O)(=O)c2ccc(OCCCn3nnc(-c4ccccc4OC)n3)cc2)CC1 [Example 180]			IC50 (Human recombinant MMP-2; value outside parenthesis): 443 nM; IC50 (Human recombinant MMP-13; value outside parenthesis): 17 nM
COc1ccc(SC[C@H](C)COc2ccc(S(=O)(=O)C3(C(=O)NO)CCOCC3)cc2)cc1 [Example 434]	1.1	0.6	
O=C(NCCCOc1ccc(S(=O)(=O)C2(C(=O)NO)CCOCC2)cc1)c1ccccc1 [Example 417]	315	2.6	
O=C(NO)C1(S(=O)(=O)c2ccc(OCCCc3cccnc3)cc2)CCOCC1 [Example 575]			IC50 (Human recombinant MMP-2; value outside parentheses): 8.4 nM; IC50 (Human recombinant MMP-13; value outside parentheses): 2 nM
O=C(NCCOc1ccc(S(=O)(=O)C2(C(=O)NO)CCOCC2)cc1)c1nc2ccccc2s1 [Example 589]			IC50 (Human recombinant MMP-2; value outside parentheses): 9.9 nM; IC50 (Human recombinant MMP-13; value outside parentheses): 0.4 nM
COc1ccc(C(=O)NCCOc2ccc(S(=O)(=O)C3(C(=O)NO)CCOCC3)cc2)cc1 [Example 393]	50	45	
CS(=O)(=O)c1ccccc1S(=O)(=O)N1CC(Oc2ccc(S(=O)(=O)C3(C(=O)NO)CCOCC3)cc2)C1 [Example 483]		29	
